# Test results taken from PubChem BioAssay AID248 (DTP/NCI, 2004).
# Several values for one entry are separate records, joined by “and”; a condition that tells them apart may be missing. Equal entries are not always repeated. Inconclusive results and toxic doses are left out.
# System: L1210 leukemia ip in BDF1 mice, survival T/C
# Experiment: NCI In Vivo Anticancer Drug Screen. Data for tumor model L1210 Leukemia (intraperitoneal) in B6D2F1 (BDF1) mice
# Conditions: endpoint: mean survival time, higher = longer survival
# Procedure, shortened: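 Transplanted-tumor mice were given test agent; controls received vehicle only. Survival readings from the two groups were divided (treated over control).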
# [1] = dose: 150.0 mg/kg/injection, schedule: Q01DX001 (ip), vehicle: carboxymethylcellulose (CMC)
# [2] = dose: 200.0 mg/kg/injection, schedule: Q01DX001 (ip), vehicle: carboxymethylcellulose (CMC)
# [3] = dose: 400.0 mg/kg/injection, schedule: Q01DX001 (ip), vehicle: carboxymethylcellulose (CMC)
# [4] = dose: 100.0 mg/kg/injection, schedule: Q01DX009 (ip), vehicle: Klucel (hydroxypropylcellulose) (HPC)
# [5] = dose: 100.0 mg/kg/injection, schedule: Q04DX003 (ip), vehicle: Klucel (hydroxypropylcellulose) (HPC)
# [6] = dose: 200.0 mg/kg/injection, schedule: Q01DX009 (ip), vehicle: Klucel (hydroxypropylcellulose) (HPC)
# [7] = dose: 200.0 mg/kg/injection, schedule: Q04DX003 (ip), vehicle: Klucel (hydroxypropylcellulose) (HPC)
# [8] = dose: 400.0 mg/kg/injection, schedule: Q01DX009 (ip), vehicle: Klucel (hydroxypropylcellulose) (HPC)
# [9] = dose: 400.0 mg/kg/injection, schedule: Q04DX003 (ip), vehicle: Klucel (hydroxypropylcellulose) (HPC)
# [10] = dose: 100.0 mg/kg/injection, schedule: Q04DX002 (ip), vehicle: Klucel (hydroxypropylcellulose) (HPC)
# [11] = dose: 50.0 mg/kg/injection, schedule: Q01DX009 (ip), vehicle: Klucel (hydroxypropylcellulose) (HPC)
smiles,measurement,setting,value
O=c1[nH]nc(Br)c(=O)n1C(c1ccccc1)c1ccccc1,T/C,"dose: 22.0 mg/kg/injection, schedule: Q01DX015 (ip), vehicle: carboxymethylcellulose (CMC)",89 % of control
same,T/C,"dose: 33.0 mg/kg/injection, schedule: Q01DX015 (ip), vehicle: carboxymethylcellulose (CMC)",97 % of control
same,T/C,"dose: 44.0 mg/kg/injection, schedule: Q01DX001 (ip), vehicle: carboxymethylcellulose (CMC)",97 % of control and 101 % of control
same,T/C,"dose: 50.0 mg/kg/injection, schedule: Q01DX015 (ip), vehicle: carboxymethylcellulose (CMC)",95 % of control
same,T/C,"dose: 66.0 mg/kg/injection, schedule: Q01DX001 (ip), vehicle: carboxymethylcellulose (CMC)",94 % of control and 98 % of control
same,T/C,"dose: 75.0 mg/kg/injection, schedule: Q01DX015 (ip), vehicle: carboxymethylcellulose (CMC)",97 % of control
same,T/C,[1],95 % of control and 96 % of control
same,T/C,[2],154 % of control
same,T/C,[3],96 % of control
NC(=O)C1CCCC12NC(=O)NC2=O (centres undefined),T/C,[4],104 % of control
same,T/C,[5],100 % of control
same,T/C,[6],94 % of control
same,T/C,[7],103 % of control
same,T/C,[8],93 % of control
same,T/C,[9],97 % of control
O=C(Nc1ccc(F)cc1)Nc1ccc(Nc2ccccc2)cc1,T/C,"dose: 100.0 mg/kg/injection, schedule: Q01DX001 (ip), vehicle: carboxymethylcellulose (CMC)",91 % of control
same,T/C,"dose: 100.0 mg/kg/injection, schedule: Q01DX009 (ip), vehicle: carboxymethylcellulose (CMC)",97 % of control
same,T/C,"dose: 100.0 mg/kg/injection, schedule: Q04DX002 (ip), vehicle: carboxymethylcellulose (CMC)",93 % of control and 86 % of control
same,T/C,"dose: 100.0 mg/kg/injection, schedule: Q04DX003 (ip), vehicle: carboxymethylcellulose (CMC)",88 % of control
same,T/C,[2],91 % of control
same,T/C,"dose: 200.0 mg/kg/injection, schedule: Q01DX009 (ip), vehicle: carboxymethylcellulose (CMC)",87 % of control
same,T/C,"dose: 200.0 mg/kg/injection, schedule: Q04DX002 (ip), vehicle: carboxymethylcellulose (CMC)",98 % of control and 86 % of control
same,T/C,"dose: 200.0 mg/kg/injection, schedule: Q04DX003 (ip), vehicle: carboxymethylcellulose (CMC)",93 % of control
same,T/C,[3],91 % of control
same,T/C,"dose: 400.0 mg/kg/injection, schedule: Q01DX009 (ip), vehicle: carboxymethylcellulose (CMC)",92 % of control and 87 % of control
same,T/C,"dose: 400.0 mg/kg/injection, schedule: Q04DX002 (ip), vehicle: carboxymethylcellulose (CMC)",88 % of control
same,T/C,"dose: 400.0 mg/kg/injection, schedule: Q04DX003 (ip), vehicle: carboxymethylcellulose (CMC)",88 % of control
Cc1cc(F)ccc1OCC(=O)Oc1ccc([N+](=O)[O-])cc1,T/C,[10],108 % of control
same,T/C,"dose: 200.0 mg/kg/injection, schedule: Q04DX002 (ip), vehicle: Klucel (hydroxypropylcellulose) (HPC)",101 % of control
same,T/C,"dose: 400.0 mg/kg/injection, schedule: Q04DX002 (ip), vehicle: Klucel (hydroxypropylcellulose) (HPC)",111 % of control
NC(N)=N/N=C/c1cccc([N+](=O)[O-])c1,T/C,"dose: 15.0 mg/kg/injection, schedule: Q01DX Z (ip), vehicle: carboxymethylcellulose (CMC)",98 % of control
same,T/C,"dose: 30.0 mg/kg/injection, schedule: Q01DX Z (ip), vehicle: carboxymethylcellulose (CMC)",93 % of control
same,T/C,"dose: 60.0 mg/kg/injection, schedule: Q01DX Z (ip), vehicle: carboxymethylcellulose (CMC)",90 % of control
Oc1ccc(CN2CCCCC2)c2cccnc12,T/C,"dose: 75.0 mg/kg/injection, schedule: Q01DX001 (ip), vehicle: carboxymethylcellulose (CMC)",106 % of control
same,T/C,[1],106 % of control
CCCC(=O)OC(OC(=O)CCC)c1cccc(OC(=O)CC)c1,T/C,"dose: 222.0 mg/kg/injection, schedule: Q01DX Z (ip), vehicle: methylcellulose (MC)",96 % of control
same,T/C,"dose: 333.0 mg/kg/injection, schedule: Q01DX Z (ip), vehicle: methylcellulose (MC)",104 % of control
same,T/C,"dose: 500.0 mg/kg/injection, schedule: Q01DX Z (ip), vehicle: methylcellulose (MC)",105 % of control
CN(C)CCC(c1ccccc1)c1nc(N)nc(C(CCN(C)C)c2ccccc2)n1 (centres undefined),T/C,"dose: 50.0 mg/kg/injection, schedule: Q04DX002 (ip), vehicle: Klucel (hydroxypropylcellulose) (HPC)",102 % of control
same,T/C,[4],115 % of control
same,T/C,[10],105 % of control
COC1OC(COS(=O)(=O)c2ccc(C)cc2)C2OC(C)(C)OC12 (centres undefined),T/C,[11],107 % of control
same,T/C,"dose: 50.0 mg/kg/injection, schedule: Q04DX003 (ip), vehicle: Klucel (hydroxypropylcellulose) (HPC)",92 % of control
same,T/C,[4],95 % of control
same,T/C,"dose: 100.0 mg/kg/injection, schedule: Q01DX009 (ip), vehicle: saline",96 % of control
same,T/C,[5],92 % of control and 94 % of control
same,T/C,[6],104 % of control
same,T/C,"dose: 200.0 mg/kg/injection, schedule: Q01DX009 (ip), vehicle: saline",91 % of control
same,T/C,[7],92 % of control and 91 % of control
same,T/C,[8],96 % of control
same,T/C,"dose: 400.0 mg/kg/injection, schedule: Q01DX009 (ip), vehicle: saline",91 % of control
same,T/C,[9],105 % of control and 91 % of control
Cc1cc(C)c2c(c1)CCc1cc(C)cc(C)c1-2,T/C,[4],100 % of control
same,T/C,[5],93 % of control
same,T/C,[6],93 % of control
same,T/C,[7],93 % of control
same,T/C,[8],100 % of control
same,T/C,[9],93 % of control
O=C(Nc1ccc(Nc2ccccc2)cc1)Nc1cccc(C(F)(F)F)c1,T/C,"dose: 100.0 mg/kg/injection, schedule: Q01DX001 (ip), vehicle: gum acacia",94 % of control and 97 % of control
same,T/C,"dose: 100.0 mg/kg/injection, schedule: Q01DX009 (ip), vehicle: gum acacia",94 % of control and 98 % of control
same,T/C,"dose: 100.0 mg/kg/injection, schedule: Q04DX002 (ip), vehicle: gum acacia",95 % of control
same,T/C,"dose: 100.0 mg/kg/injection, schedule: Q04DX003 (ip), vehicle: gum acacia",100 % of control and 101 % of control
same,T/C,"dose: 200.0 mg/kg/injection, schedule: Q01DX001 (ip), vehicle: gum acacia",97 % of control and 90 % of control
same,T/C,"dose: 200.0 mg/kg/injection, schedule: Q01DX009 (ip), vehicle: gum acacia",98 % of control and 103 % of control
same,T/C,"dose: 200.0 mg/kg/injection, schedule: Q04DX002 (ip), vehicle: gum acacia",93 % of control and 86 % of control
same,T/C,"dose: 200.0 mg/kg/injection, schedule: Q04DX003 (ip), vehicle: gum acacia",94 % of control
same,T/C,"dose: 400.0 mg/kg/injection, schedule: Q01DX001 (ip), vehicle: gum acacia",103 % of control and 87 % of control
same,T/C,"dose: 400.0 mg/kg/injection, schedule: Q01DX009 (ip), vehicle: gum acacia",97 % of control and 91 % of control
same,T/C,"dose: 400.0 mg/kg/injection, schedule: Q04DX002 (ip), vehicle: gum acacia",100 % of control
same,T/C,"dose: 400.0 mg/kg/injection, schedule: Q04DX003 (ip), vehicle: gum acacia",95 % of control and 96 % of control
Cc1ccc(NC(=O)Nc2ccccc2)cc1Cl,T/C,"dose: 100.0 mg/kg/injection, schedule: Q01DX009 (sc), vehicle: olive oil, sesame oil, peanut oil",100 % of control
same,T/C,"dose: 100.0 mg/kg/injection, schedule: Q04DX003 (sc), vehicle: olive oil, sesame oil, peanut oil",100 % of control
same,T/C,"dose: 200.0 mg/kg/injection, schedule: Q01DX009 (sc), vehicle: olive oil, sesame oil, peanut oil",96 % of control
same,T/C,"dose: 200.0 mg/kg/injection, schedule: Q04DX003 (sc), vehicle: olive oil, sesame oil, peanut oil",99 % of control
same,T/C,"dose: 400.0 mg/kg/injection, schedule: Q01DX009 (sc), vehicle: olive oil, sesame oil, peanut oil",91 % of control
same,T/C,"dose: 400.0 mg/kg/injection, schedule: Q04DX003 (sc), vehicle: olive oil, sesame oil, peanut oil",100 % of control
CCCCCCCCCCCCCCCCn1cnc2c(=S)nc[nH]c21,T/C,"dose: 12.5 mg/kg/injection, schedule: Q01DX005 (ip), vehicle: other",102 % of control
same,T/C,"dose: 25.0 mg/kg/injection, schedule: Q01DX005 (ip), vehicle: other",96 % of control
same,T/C,"dose: 50.0 mg/kg/injection, schedule: Q01DX005 (ip), vehicle: other",104 % of control
same,T/C,"dose: 100.0 mg/kg/injection, schedule: Q01DX005 (ip), vehicle: other",104 % of control
same,T/C,"dose: 200.0 mg/kg/injection, schedule: Q01DX005 (ip), vehicle: other",96 % of control
O=c1cc(-c2ccccc2)oc(-c2ccc(Cl)cc2)c1,T/C,"dose: 25.0 mg/kg/injection, schedule: Q01DX009 (ip), vehicle: Klucel (hydroxypropylcellulose) (HPC)",98 % of control
same,T/C,[11],98 % of control
same,T/C,[4],100 % of control
same,T/C,[5],97 % of control
same,T/C,[7],90 % of control
same,T/C,[9],100 % of control
CCc1c(Nc2ccc(Cl)c(Cl)c2)[nH]c(N)nc1=S,T/C,"dose: 100.0 mg/kg/injection, schedule: Q01DX Z (ip), vehicle: methylcellulose (MC)",90 % of control
same,T/C,"dose: 200.0 mg/kg/injection, schedule: Q01DX Z (ip), vehicle: methylcellulose (MC)",105 % of control
